According to patent US7711497B2, “Method of identifying calcium-binding sites in gamma-crystallin useful for management of cataract” (Council of Scientific and Industrial Research, priority 2002, dated 2010):
Where no end group is shown, it is not given here.

How the values were obtained:
[1] = Stains-all binding assay (induced CD); conditions: peptides; dye 43 μM
Procedure: Stains-all Binding Assay-Aliquots of protein solutions were added to the Stains-all solution and mixed gently. Circular dichroism induced in the achiral dye upon binding to the protein was measured in the visible region of the spectrum (400-700 nm). The dye solution and the crystallins were prepared in 2 mM MOPS buffer, pH 7.2, containing 30% ethylene glycol (34, 35). Ellipticities were expressed in millidegrees.
CD spectra of Stains-all induced upon binding to crystallin were recorded in 2 mM MOPS buffer, pH 7.2, containing 30% ethylene glycol, path length 1 cm. Dye concentration in all experiments was 16 μM. The ellipticity data are represented in millidegrees. A, CD spectra recorded with increasing concentration of -crystallin; 1, 0.026 mg/ml (---); 2, 0.078 mg/ml (- - -); 3, 0.13 mg/ml -.-.-. and 4, 0.156 mg/ml (. . .). B, effect of calcium on Stains-all--crystallin complex spectra. Calcium was added in the dye-protein mixture (-crystallin concentration was […]), and CD was recorded. Calcium concentrations used are as follows: 1, no calcium (---); 2, 50 μM calcium (- - - -); 3, 100 μM calcium (. . .); 4, 200 μM calcium (-.-.-.); and 5, 300 μM calcium (-..-..). The J band was abolished with 300-μM calcium.
CD spectra of Stains-all induced upon binding to peptides were recorded. Dye concentration in all experiments was 43 μM. The ellipticity data are represented in millidegrees. a, CD spectra were recorded with increasing concentration of the wild type peptide g3; 0.013 mg/ml (---), 0.037 mg/ml (- - -), and 0.057 mg/ml (. . . .). b, effect of calcium on Stains-all-peptide complex. Calcium was added to the dye-peptide mixture (peptide concentration was 57 μg/ml) and calcium concentrations used were: no calcium (---), 0.7 mM calcium (- - - -), and 7.5 mM calcium (. . . .). c and d represent the Stains-all binding of the modified peptides, g3a and g3b. Identical concentrations of dye and peptides were used.

[2] = Solubility of Greek key peptides; assay type: physicochemical; conditions: aqueous medium / water
[3] = 45Ca overlay method (peptide dot-blot); assay type: binding; conditions: dot-blot on polyvinylidene difluoride membrane
Procedure: Calcium Binding Studies by ^45Ca Overlay Method-Calcium binding to peptides was done by ^45Ca overlay method of Maruyama et al, 133). […] of peptides were spotted onto a polyvinylidene difluoride membrane by dot-blot apparatus. The membrane was equilibrated in a solution containing 10-mM imidazole HCl. pH 6.8, 60 mM KCl, 5 mM MgCl2 and then incubated for 15 min at 25° C. in the same buffer containing 1 microCi/mil ^45Ca. The membrane was then rinsed twice in 45% ethanol, blotted dry, and exposed to PhosphorImager screen, and the signal was read in Phosphorimager (Fuji Bas-1800).
The wild type peptide g3, its variants (g3a and g3b) and s3a were spotted onto a polyvinylidene difluoride membrane and detected by ^45Ca overlay. For a positive control, EF-hand peptide corresponding to site 4 of rat neuronal calcium sensor-1 was used; bovine serum albumin (BSA) was used as a negative control.

[4] = Calcium binding of single crystallin domain of AIMI; conditions: compared with gamma-crystallin

Row | Molecule | Stains-all binding, induced CD band [1] | solubility [2] | 45Ca binding [3] | calcium binding affinity [4]
1 | s3a: control peptide, first Greek key motif of spherulin 3a (residues 14-56), Seq. ID No. 4 (GEVFLYKHVNFQGDSWKVTGNVYDFRSVSGLNDVVSSVKVGPN) | binds the dye and induces a calcium-sensitive band at 470-475 nm | not soluble in water | – | –
2 | RMRIYERDDFRGQMSEITDDCPSLQDRFHLTEVHSLNVLEGS [g3] | – | fairly soluble in aqueous medium | – | –
3 | g3b: g3 mutant with aspartates 108 and 109 replaced by Lys, Seq. ID No. 3 (RMRIYERDDFRGQMSEITKKCPSLQDRFHLTEVHSLNVLEGS) | binds the dye and induces the band | – | do not show detectable binding | –
4 | g3a: g3 mutant with Glu-95 and Glu-121 modified to Lys, Seq. ID No. 2 (RMRIYKRDDFRGQMSEITDDCPSLQDRFHLTKVHSLNVLEGS) | decreased several fold | – | do not show detectable binding | –
5 | AIMI: single crystallin domain of AIMI (absent in melanoma), 1022-1117 residues, comprising two Greek keys (protein, UniProt Q9Y4K1 1022-1117, looked up, fragment, crystallin domain, single crystallin domain of AIMI (absent in melanoma), 1022-1117 residues, comprising two Greek keys) AAKSGPQVIPPASEKTLPIQAQSQGSRTPLMAESSPTNSPSSGNHLATPQRPDQTVTNGQDSPASLLNISAGSDDSVFDSSSDMEKFTEIIKQMDS | – | – | – | binds calcium with a comparative affinity to gamma-crystallin
